# Where two headings read alike, the source gives them in different places.
# Molecular target: cocaine aptamer
# Conditions: for Kd: read-out: dissociation constant Kd
SMILES,"Kd (Comparative Example 1: 1 mM methyl benzoate titrated into 50 μM cocaine aptamer in D-PBS(−), no tropane derivative, binding order 1)",Kd (Example 1: 1 mM methyl benzoate titrated into 50 μM cocaine aptamer in D-PBS(−) containing 10 μM tropine),ITC heat generation (Comparative Example 2: 1 mM tropine titrated into 50 μM cocaine aptamer in D-PBS(−)),ITC heat generation (Comparative Example 3: 1 mM tropine titrated into 50 μM cocaine aptamer in D-PBS(−) containing 10 μM methyl benzoate)
COC(=O)c1ccccc1 [methyl benzoate],87.7 µM,69.7 µM,–,–
CN1[C@@H]2CC[C@H]1C[C@@H](O)C2 [tropine],–,–,no heat generation was observed,no heat generation was observed

# — patent US12540913B2, “Chemical sensor, reagent, and method for detecting benzoic acid and benzoic acid derivative” (KABUSHIKI KAISHA TOSHIBA, priority 2023, dated 2026)
